Here are results for seven compounds from patent publication US20260138976A1 (Hoffmann-La Roche Inc., priority 2022, published 2026).

This assay deals with T1, DGK α kinase (Homo sapiens, UniProt P23743).
T1 construct: purchased Reaction Biology Corp. (contract assay service)
T1 sequence (P23743 whole entry): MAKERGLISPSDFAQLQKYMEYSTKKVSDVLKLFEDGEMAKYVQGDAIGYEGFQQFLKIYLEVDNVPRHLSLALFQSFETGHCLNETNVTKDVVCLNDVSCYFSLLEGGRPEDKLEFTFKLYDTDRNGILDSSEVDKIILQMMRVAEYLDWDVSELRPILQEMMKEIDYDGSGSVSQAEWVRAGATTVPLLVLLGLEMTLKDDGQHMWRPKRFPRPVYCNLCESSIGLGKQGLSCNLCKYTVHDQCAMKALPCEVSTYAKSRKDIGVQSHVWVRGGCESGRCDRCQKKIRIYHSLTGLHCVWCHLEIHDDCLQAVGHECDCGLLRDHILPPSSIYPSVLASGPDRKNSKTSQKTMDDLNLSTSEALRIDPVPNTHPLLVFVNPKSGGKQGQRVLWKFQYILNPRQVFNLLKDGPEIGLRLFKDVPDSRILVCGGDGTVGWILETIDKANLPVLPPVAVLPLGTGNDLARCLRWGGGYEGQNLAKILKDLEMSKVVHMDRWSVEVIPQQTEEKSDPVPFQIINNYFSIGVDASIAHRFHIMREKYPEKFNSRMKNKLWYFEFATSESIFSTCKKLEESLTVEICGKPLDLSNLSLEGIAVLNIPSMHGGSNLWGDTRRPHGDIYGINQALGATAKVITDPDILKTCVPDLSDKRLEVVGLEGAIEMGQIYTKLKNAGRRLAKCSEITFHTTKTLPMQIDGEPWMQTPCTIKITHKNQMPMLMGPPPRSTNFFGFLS
The assay can be described thus: DGKalpha kinase ADP Glo assay run by Reaction Biology Corp. Conditions: 2 nM kinase, 50 µM ATP, 500 μM DLG, 10-dose duplicate. Format: biochemical. (In general: ADP-Glo turns the ADP formed in a reaction into a luminescent signal.)
As a reminder, the IC50 is the concentration that gives 50% inhibition. Turning to `C[C@@](N)(c1nnc(-c2ccc3c(c2)N(Cc2ccc(-c4noc(C(F)(F)F)n4)cc2)C(=O)[C@@H](N)CS3(=O)=O)o1)C(F)(F)F` [Example 52, (3R)-3-amino-7-[5-[(1R)-1-amino-2,2,2-trifluoro-1-methyl-ethyl]-1,3,4-oxadiazol-2-yl]-1,1-dioxo-5-[[4-[5-(trifluoromethyl)-1,2,4-oxadiazol-3-yl]phenyl]methyl]-2,3-dihydro-1λ^6,5-benzothiazepin-4-one], inhibition was half-maximal at 63.6 nM (IC50).

On to `Cc1noc(-c2ccc(CN3C(=O)[C@@H](N)CS(=O)(=O)c4ccc(-c5nnc(C(C)(C)C)o5)cc43)cc2)n1` [Example 20, (3R)-3-amino-7-(5-tert-butyl-1,3,4-oxadiazol-2-yl)-5-[[4-(3-methyl-1,2,4-oxadiazol-5-yl)phenyl]methyl]-1,1-dioxo-2,3-dihydro-1λ^6,5-benzothiazepin-4-one], for which the IC50 came out at 1410 nM.

As for `CC(C)(C#N)c1nnc(-c2ccc3c(c2)N(Cc2ccc(-c4ccc(C(F)(F)F)cn4)cc2)C(=O)[C@@H](N)CS3(=O)=O)o1` [Example 47], the concentration for half-maximal inhibition (IC50) amounted to 238 nM.

Compound `CC(C)(C#N)c1nnc(-c2ccc3c(c2)N(Cc2ccc(-c4ccc(OC(F)(F)F)cn4)cc2)C(=O)[C@@H](N)CS3(=O)=O)o1` [Example 124] returned an IC50 of 23.3 nM.

Take `N[C@H]1CS(=O)(=O)c2ccc(-c3nnc(N4CCOC(F)(F)C4)o3)cc2N(Cc2ccc(-c3noc(C(F)(F)F)n3)cc2)C1=O` [Example 78, (3R)-3-amino-7-[5-(2,2-difluoromorpholin-4-yl)-1,3,4-oxadiazol-2-yl]-1,1-dioxo-5-[[4-[5-(trifluoromethyl)-1,2,4-oxadiazol-3-yl]phenyl]methyl]-2,3-dihydro-1λ^6,5-benzothiazepin-4-one]: the IC50 is 105 nM.

In the case of `COc1ccc(-c2ccc(CN3C(=O)[C@@H](N)CS(=O)(=O)c4ccc(-c5nnc(N(C)CC(F)(F)F)o5)cc43)cc2)cc1` [Example 81, (3R)-3-amino-5-[[4-(4-methoxyphenyl)phenyl]methyl]-7-[5-[methyl(2,2,2-trifluoroethyl)amino]-1,3,4-oxadiazol-2-yl]-1,1-dioxo-2,3-dihydro-1λ^6,5-benzothiazepin-4-one], the 50% inhibitory concentration (IC50) was found to be 226 nM.

In turn, `C[C@](N)(c1nnc(-c2ccc3c(c2)N(Cc2ccc(-c4noc(C(F)(F)F)n4)cc2)C(=O)[C@@H](N)CS3(=O)=O)o1)C(F)(F)F` [Example 53, (3R)-3-amino-7-[5-[(1S)-1-amino-2,2,2-trifluoro-1-methyl-ethyl]-1,3,4-oxadiazol-2-yl]-1,1-dioxo-5-[[4-[5-(trifluoromethyl)-1,2,4-oxadiazol-3-yl]phenyl]methyl]-2,3-dihydro-1λ^6,5-benzothiazepin-4-one] returned an IC50 of 160 nM.
